Read-outs that look alike come from different tables or passages of the source.
Assays:
[1] = Measurement of log P values by HPLC on reversed phase columns (methods [a] pH 2.3, [b] pH 2.7, [c] pH 7.8); assay type: physicochemical; settings: for chromatographic logP: reversed phase HPLC columns
How it was run: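 Retention times were converted to log P by linear interpolation between linear alkan-2-one standards (3 to 16 carbons) of known log P. Eluents, each with 10% to 95% acetonitrile gradient: phosphoric acid 0.1% at pH 2.3 [a]; formic acid 0.1% at pH 2.7, LC-MS [b]; ammonium hydrogen carbonate 0.001 molar at pH 7.8, LC-MS [c].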

[2] = tested on: Meloidogyne incognita; test: Meloidogyne incognita test (MELGIN), gall formation on salad seedlings; assay type: in vivo; settings: application rate 20 ppm, after 14 days
Protocol: Meioidovnve incomita—Test (MELGIN)
Solvent: 125.0 parts by weight of acetone
To produce a suitable preparation of active compound, 1 part by weight of active compound is mixed with the stated amount of solvent, and the concentrate is diluted with water to the desired concentration.
Vessels are filled with sand, a solution of the active ingredient, a suspension containing eggs and larvae of the southern root-knot nematode (Meloidogyne incognita) and salad seeds. The salad seeds germinate and the seedlings grow. Galls develop in the roots.
After 14 days the nematicidal activity is determined on the basis of the percentage of gall formation. 100% means that no galls were found; 0% means the number of galls found on the roots of the treated plants was equal to that in untreated control plants.

[3] = HPLC on reversed phase column, method [b], pH 2.7
[4] = method [b], HPLC reversed phase, pH 2.7
[5] = method [c], HPLC reversed phase, pH 7.8
[6] = HPLC reversed phase, method [b] (pH 2.7)
[7] = HPLC reversed phase, method [c] pH 7.8

| Structure (SMILES) | logP [1, 6] | nematicidal activity (percentage of gall formation; 100% = no galls) [2] | further results |
| --- | --- | --- | --- |
| O=C(N[C@@H]1CC[C@@H]1c1ccccc1C(F)(F)F)c1ccccc1[N+](=O)[O-] (relative stereo) [Compound 638] | – | 100% | logP [1, 3]: 2.93^[b] |
| O=C(N[C@@H]1CC[C@@H]1c1cccc(F)c1C(F)(F)F)c1c(F)cccc1F (relative stereo) [Compound 639] | – | 100% | logP [1, 3]: 3.08^[b] |
| O=C(N[C@@H]1CC[C@@H]1c1cccc(F)c1C(F)(F)F)c1cccnc1C(F)(F)F (relative stereo) [Compound 641] | – | 100% | logP [1, 3]: 2.97^[b] |
| O=C(N[C@@H]1CC[C@H]1c1cccc(F)c1C(F)(F)F)c1cccnc1C(F)(F)F (relative stereo) [Compound 642] | – | 90% | logP [1, 3]: 3.15^[b] |
| O=C(N[C@@H]1CC[C@@H]1c1cccc(F)c1C(F)(F)F)c1nccnc1Cl (relative stereo) [Compound 645] | – | 100% | logP [1, 3]: 2.78^[b] |
| O=C(N[C@@H]1CC[C@@H]1c1cccc(F)c1C(F)(F)F)c1cccnc1Cl (relative stereo) [Compound 647] | – | 100% | logP [1, 3]: 2.66^[b] |
| O=C(N[C@@H]1C[C@@H]1c1ccc(Cl)cc1Cl)c1ncccc1Cl (relative stereo) [Compound 649] | – | 100% | logP [1, 3]: 2.93^[b]; logP ([1]; HPLC on reversed phase column, method [c], pH 7.8): 2.91^[c]; |
| O=C(N[C@H]1CCC1c1c(F)cccc1F)c1cccnc1C(F)(F)F (stereo in doubt) [Compound 236, cis-N-[2-(2,6-difluorophenyl)cyclobutyl]-2-(trifluoromethyl)nicotinamide] | – | 100% | chromatographic logP ([1]; HPLC-MS, method letter not given, read-out: log P): 2.6; chromatographic logP ([1]; pH 2.7, method [b], HPLC reversed phase, pH 2.7, read-out: logP): 2.6 |
| Cn1cc(C(=O)NC2CC2c2ccc(Cl)cc2)c(C(F)(F)F)n1 (stereo not drawn) [Compound 11] | – | 90% | logP ([1]; HPLC on reversed phase columns, method [b], pH 2.7): 3.43^[b] |
| O=C(NC1CC1c1ccc(Cl)cc1Cl)c1sccc1I (stereo not drawn) [Compound 212] | – | 100% | logP [1, 4]: 4.10^[b]; logP [1, 5]: 4.04^[c]; |
| O=C(NC1CC1c1ccc(Cl)cc1Cl)c1sccc1Cl (stereo not drawn) [Compound 213] | – | 100% | logP [1, 4]: 4.08^[b]; logP [1, 5]: 4.02^[c]; |
| O=C(NC1CC1c1ccc(Cl)cc1Cl)c1occc1Br (stereo not drawn) [Compound 214] | – | 100% | logP [1, 4]: 3.56^[b]; logP [1, 5]: 3.44^[c]; |
| O=C(NC1CCC1c1ccccc1C(F)(F)F)c1ncccc1Cl (stereo not drawn) [Compound 215] | – | 90% | logP [1, 4]: 3.01^[b] |
| O=C(NC1CCC1c1ccccc1C(F)(F)F)c1ccccc1Br (stereo not drawn) [Compound 216] | – | 100% | logP [1, 4]: 3.32^[b] |
| O=C(NC1CCC1c1ccccc1C(F)(F)F)c1ccc(Cl)cc1Cl (stereo not drawn) [Compound 217] | – | 90% | logP [1, 4]: 3.81^[b] |
| O=C(NC1CCC1c1c(F)cccc1F)c1ccccc1Br (stereo not drawn) [Compound 227] | – | 100% | logP [1, 4]: 2.97^[b] |
| O=C(NC1CCC1c1ccccc1C(F)(F)F)c1cccnc1C(F)(F)F (stereo not drawn) [Compound 235] | – | 100% | logP [1, 4]: 2.94^[b] |
| O=C(NC1CCCC1c1c(F)cccc1F)c1ccccc1Cl (stereo not drawn) [Compound 311] | 3.24^[b] | 90% | – |
| O=C(NC1CC1c1ccc(Cl)cc1Cl)c1ccccc1C(F)(F)F (stereo not drawn) [Compound 424] | 3.46^[b] | 100% | – |
| O=C(NC1CC1c1ccc(Cl)cc1Cl)c1cccnc1Cl (stereo not drawn) [Compound 425] | 2.62^[b] | 100% | – |
| O=C(NC1CCC1c1ccccc1C(F)(F)F)c1ccccc1 (stereo not drawn) [Compound 426] | 3.08^[b] | 100% | – |
| O=C(NC1CCC1c1ccccc1C(F)(F)F)c1ccccc1I (stereo not drawn) [Compound 427] | 3.44^[b] | 100% | – |
| O=C(NC1CCC1c1ccccc1C(F)(F)F)c1c(F)cccc1F (stereo not drawn) [Compound 430] | 3.09^[b] | 100% | – |
| O=C(NC1CCC1c1ccccc1C(F)(F)F)c1ccccc1Cl (stereo not drawn) [Compound 432] | 3.30^[b] | 100% | – |
| O=C(NC1CCC1c1ccccc1C(F)(F)F)c1ccccc1C(F)(F)F (stereo not drawn) [Compound 434] | 3.44^[b] | 90% | – |
| O=C(NC1CCC1c1c(F)cccc1F)c1ccccc1I (stereo not drawn) [Compound 440] | 3.13^[b] | 90% | – |

The next lines start with results.

| logP [1, 6] | Structure (SMILES) | nematicidal activity (percentage of gall formation; 100% = no galls) [2] | further results |
| --- | --- | --- | --- |
| 2.98^[b] | O=C(NC1CC1c1ccc(Cl)cc1)c1ccccc1C(F)(F)F (stereo not drawn) [Compound 271] | 90% | logP [1, 7]: 2.94^[c]; |
| 3.55^[b] | O=C(NC1CCCC1c1ccccc1Cl)c1ccccc1C(F)(F)F (stereo not drawn) [Compound 296] | 90% | – |
| 3.05^[b] | O=C(NC1CCCC1c1ccccc1Cl)c1cccnc1C(F)(F)F (stereo not drawn) [Compound 297] | 100% | – |
| 2.87^[b] | O=C(NC1CCCC1c1c(F)cccc1F)c1cccnc1C(F)(F)F (stereo not drawn) [Compound 313] | 100% | – |
| 3.40^[b] | O=C(NC1CCCC1c1c(F)cccc1F)c1ccccc1I (stereo not drawn) [Compound 322] | 90% | – |
| 3.13^[b] | O=C(NC1CCCC1c1ccccc1Br)c1cccnc1C(F)(F)F (stereo not drawn) [Compound 346] | 100% | – |
| 2.80^[b] | O=C(NC1CCCC1c1ccccc1Br)c1cccnc1Cl (stereo not drawn) [Compound 348] | 90% | – |
| 3.52^[b] | O=C(NC1CCCC1c1ccccc1Br)c1ccccc1Cl (stereo not drawn) [Compound 349] | 90% | – |
| 4.04^[b] | O=C(NC1CCCC1c1ccc(Cl)cc1Cl)c1ccccc1I (stereo not drawn) [Compound 352] | 100% | – |
| 4.04^[b] | O=C(NC1CCCC1c1ccc(Cl)cc1Cl)c1ccccc1C(F)(F)F (stereo not drawn) [Compound 353] | 100% | – |
| 3.54^[b] | O=C(NC1CCCC1c1ccc(Cl)cc1Cl)c1cccnc1C(F)(F)F (stereo not drawn) [Compound 358] | 100% | – |
| 4.03^[b] | O=C(NC1CCCCC1c1ccc(Cl)cc1Cl)c1cccnc1C(F)(F)F (stereo not drawn) [Compound 414] | 100% | – |
| 2.97^[b] | O=C(NC1CCC1c1c(F)cccc1F)c1ccccc1Cl (stereo not drawn) [Compound 443] | 90% | – |
| 2.29^[b] | O=C(NC1CC1c1ccc(Cl)cc1)c1nccnc1Cl (stereo not drawn) [Compound 461] | 100% | logP [1, 7]: 2.27^[c]; |
